# Assay results reported in patent US20110166192A1, “PROCESS FOR CHARGING A POLYMERIC PRODUCT WITH ATTRIBUTE IMPARTING AGENT(S)” (ADITYA BIRLA SCIENCE & TECHNOLOGY CO. LTD., priority 2008, published 2011).
# Test system: Staphylococcus Aureus bacteria strain ATCC 6538
# Experiment: Sustained/control release of anti-bacterial agent from the polymeric product at various temperatures, AATCC 147 zone of inhibition (FIG. 2)
# Format: cell-based
# Settings: polymeric product containing reservoir (melting range of 35-65° C.) with triclosan, 24 hr contact time
# Description: The activity of an anti-bacterial agent in the polymeric product was conducted by Qualitative AATCC 147 method. The test was conducted with Staphylococcus Aureus bacteria strain ATCC 6538. Observation of growth under the specimen accompanied with no zone of inhibition was considered as No (i.e. failed test with no anti-bacterial activity) and no growth under the specimen, with or without zone of inhibition was considered as Yes (passed test with anti-bacterial activity).
# Also the polymeric product containing reservoir (melting range of 35-65° C.) was incorporated with triclosan as anti-bacterial ingredient. The product was washed and dried at ambient temperature of 20° C. after which the fabric was maintained at said temperature for 30 minutes and measured for efficacy. Anti-bacterial analysis was done based on AATCC 147 with 24 hr contact time and the zone of inhibition (in mm) was measured. The sustained/control release of an anti-bacterial agent in the polymeric product was studied at various temperatures. The results are displaced in FIG. 2 of accompanying drawings.
structure (smiles),measurement,value
"Oc1cc(Cl)ccc1Oc1ccc(Cl)cc1Cl [triclosan, 5-chloro-2-(2,4-dichlorophenoxy)phenol]",release profile of anti-bacterial agent (zone of inhibition),sustained/control release profile with temperature
